Test results taken from the supplement of paper PMC10307832.

How the values were obtained:
Experiment in all cases: relative viability (nuclei count vs DMSO), 5 days (fraction); higher = more cells survive
IMD-0354 + Olaparib = compound: O=C(Nc1cc(C(F)(F)F)cc(C(F)(F)F)c1)c1cc(Cl)ccc1O [IMD-0354] + O=C(c1cc(Cc2n[nH]c(=O)c3ccccc23)ccc1F)N1CCN(C(=O)C2CC2)CC1 [Olaparib] (partner 8 µM)
Method in brief: (§1)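 Lung cancer cell lines in 1536-well plates got either a single drug or a fixed anchor-drug dose together with five library-drug doses (not always all listed) in √10 steps, by pin tool, on the day after seeding. Nuclei were counted after 5 days, and relative viability is the treated-to-vehicle ratio of nuclei counts. Values are medians of duplicate plates.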

CX-5461 + Pictilisib = compound: Cc1cnc(CNC(=O)c2c(=O)c3ccc(N4CCCN(C)CC4)nc3n3c2sc2ccccc23)cn1 [CX-5461] + CS(=O)(=O)N1CCN(Cc2cc3nc(-c4cccc5[nH]ncc45)nc(N4CCOCC4)c3s2)CC1 [Pictilisib] (partner 1 µM)
Method in brief: as §1

IMD-0354 + Tozasertib = compound: O=C(Nc1cc(C(F)(F)F)cc(C(F)(F)F)c1)c1cc(Cl)ccc1O [IMD-0354] + Cc1cc(Nc2cc(N3CCN(C)CC3)nc(Sc3ccc(NC(=O)C4CC4)cc3)n2)n[nH]1 [Tozasertib] (partner 0.1 µM)
Method in brief: as §1

CX-5461 + Foretinib = compound: Cc1cnc(CNC(=O)c2c(=O)c3ccc(N4CCCN(C)CC4)nc3n3c2sc2ccccc23)cn1 [CX-5461] + COc1cc2c(Oc3ccc(NC(=O)C4(C(=O)Nc5ccc(F)cc5)CC4)cc3F)ccnc2cc1OCCCN1CCOCC1 [Foretinib] (partner 0.25 µM)
Method in brief: as §1

| Cell Line | relative viability (IMD-0354 + Olaparib; first compound 0.04 µM) | relative viability (IMD-0354 + Olaparib; first compound 0.1265 µM) | relative viability (IMD-0354 + Olaparib; first compound 0.4 µM) | relative viability (IMD-0354 + Olaparib; first compound 1.265 µM) | relative viability (IMD-0354 + Olaparib; first compound 4 µM) | relative viability (CX-5461 + Pictilisib; first compound 0.01 µM) | relative viability (CX-5461 + Pictilisib; first compound 0.03162 µM) | relative viability (CX-5461 + Pictilisib; first compound 0.1 µM) | relative viability (CX-5461 + Pictilisib; first compound 0.3162 µM) | relative viability (CX-5461 + Pictilisib; first compound 1 µM) | relative viability (IMD-0354 + Tozasertib; first compound 0.04 µM) | relative viability (IMD-0354 + Tozasertib; first compound 0.1265 µM) | relative viability (IMD-0354 + Tozasertib; first compound 0.4 µM) | relative viability (IMD-0354 + Tozasertib; first compound 1.265 µM) | relative viability (IMD-0354 + Tozasertib; first compound 4 µM) | relative viability (CX-5461 + Foretinib; first compound 0.01 µM) | relative viability (CX-5461 + Foretinib; first compound 0.03162 µM) | relative viability (CX-5461 + Foretinib; first compound 0.1 µM) | relative viability (CX-5461 + Foretinib; first compound 0.3162 µM) | relative viability (CX-5461 + Foretinib; first compound 1 µM) |
| --- | --- | --- | --- | --- | --- | --- | --- | --- | --- | --- | --- | --- | --- | --- | --- | --- | --- | --- | --- | --- |
| COR-L23 | 0.298 | 0.32 | 0.286 | 0.104 | 0.127 | 0.811 | 1.15 | 0.656 | 0.65 | 0.443 | 0.197 | 0.159 | 0.175 | 0.0719 | 0.101 | 0.997 | 1.09 | 0.881 | 0.774 | 0.597 |
| HCC-78 | 0.814 | 0.744 | 0.649 | 1.04 | 0.291 | 0.187 | 0.194 | 0.172 | 0.252 | 0.212 | 0.467 | 0.598 | 0.3 | 0.368 | 0.231 | 0.596 | 0.503 | 0.573 | 0.602 | 0.589 |
| NCI-H727 | 0.574 | 0.633 | 0.617 | 0.524 | 0.318 | 0.355 | 0.492 | 0.277 | 0.253 | 0.614 | 0.602 | 0.673 | 0.489 | 0.539 | 0.453 | 0.96 | 1.14 | 0.949 | 0.722 | 0.837 |
| NCI-H2087 | 0.517 | 0.457 | 0.207 | 0.0984 | 0.122 | 0.887 | 1.02 | 1.07 | 0.282 | 0.716 | 0.273 | 0.228 | 0.167 | 0.167 | 0.126 | 1.17 | 1.43 | 1.01 | 1.14 | 0.787 |
| BEN | 1.07 | 0.975 | 0.782 | 0.437 | 0.394 | 0.662 | 0.573 | 0.6 | 0.543 | 0.534 | 0.53 | 0.51 | 0.329 | 0.468 | 0.452 | 0.781 | 0.606 | 0.739 | 0.525 | 0.636 |
| LCLC-103H | 0.79 | 0.739 | 0.566 | 0.45 | 0.379 | 0.588 | 0.611 | 0.603 | 0.483 | 0.619 | 0.597 | 0.509 | 0.425 | 0.449 | 0.222 | 0.81 | 0.867 | 0.681 | 1.02 | 0.798 |
| EKVX | 0.964 | 0.755 |  | 0.634 | 0.204 | 0.47 | 0.447 | 0.429 |  | 0.389 | 0.382 | 0.397 | 0.269 | 0.456 | 0.149 | 0.971 | 0.726 | 0.698 | 0.821 | 1.03 |
| LXF-289 | 0.959 | 0.945 | 0.783 | 0.418 | 0.0925 | 0.789 | 0.922 | 0.805 | 0.72 | 0.435 | 0.229 | 0.235 | 0.154 | 0.0929 | 0.053 | 0.998 | 1.02 | 0.974 | 0.402 | 0.902 |
| ABC-1 | 1.13 | 0.823 | 0.404 |  | 0.427 | 0.792 | 1 |  | 0.289 | 0.573 | 0.169 | 0.181 | 0.174 | 0.118 | 0.161 | 0.909 | 0.91 | 0.651 |  | 0.585 |
| NCI-H650 | 0.329 | 0.355 | 0.32 | 0.211 | 0.144 | 0.858 | 1.05 | 0.889 | 0.664 | 0.731 | 0.834 | 0.745 | 0.644 | 0.36 | 0.2 | 1.07 | 1.02 | 1.01 | 0.977 | 0.932 |
| NCI-H1650 | 0.827 | 0.82 | 0.463 | 0.325 | 0.145 | 0.577 | 0.593 |  | 0.206 | 0.226 | 0.47 | 0.362 | 0.253 | 0.259 | 0.19 | 1.35 | 1.45 | 0.958 | 0.928 | 0.385 |
| NCI-H2085 | 0.785 | 0.795 | 0.713 | 0.412 | 0.377 | 0.551 | 0.408 | 0.435 | 0.514 | 0.374 | 0.941 | 0.797 | 0.681 | 0.459 | 0.405 | 0.961 | 1.07 | 0.92 | 0.864 | 0.826 |
| NCI-H1944 | 0.377 | 0.331 | 0.3 | 0.302 | 0.191 | 0.335 | 0.371 | 0.332 |  | 0.353 | 0.252 | 0.245 | 0.206 | 0.208 | 0.131 | 0.849 | 0.913 | 0.897 | 0.47 | 0.822 |
| LC-2-ad | 0.699 | 0.71 | 0.466 | 0.364 | 0.223 | 0.431 | 0.51 | 0.516 | 0.502 | 0.334 | 0.484 | 0.528 | 0.377 | 0.243 | 0.257 | 0.919 | 1.01 | 0.835 | 0.88 | 0.504 |
| COR-L 105 | 0.644 | 0.666 | 0.62 | 0.562 | 0.443 | 0.425 | 0.461 | 0.352 | 0.281 | 0.333 | 0.379 | 0.311 | 0.394 | 0.341 | 0.207 | 1.13 | 1.05 | 1.11 | 0.813 | 0.549 |
| NCI-H1355 | 0.663 | 0.769 | 0.452 | 0.198 | 0.175 | 0.469 | 0.433 | 0.493 | 0.163 | 0.407 | 0.598 | 0.528 | 0.594 | 0.271 | 0.258 | 1.03 | 1.01 | 1.01 | 0.943 | 0.95 |
